{
  "source": "patent US10258658B2",
  "about": "“Compositions and methods for improved muscle metabolism” (Naturex SA, priority 2015, dated 2019)",
  "key": {"[1]": {"tested_on": "S6K1 phosphorylation on threonine 389", "assay": "S6K1 phosphorylation on threonine 389 in C2C12 myotubes (ELISA)", "assay_type": "cell-based, mice", "conditions": "LOW AMINO ACID (0.08 mM), Step 1; 100 ng/mL; 2 h; % of untreated control", "description": "(§1) Growing cells were harvested and plated at a density of 170 000 cells per well in a 6 well plate. Cells were grown for 48 h in 5% CO2 at 37° C. After cells reached 80% confluence, the medium was replaced with differentiating medium (DMEM+2% FBS). After 5 days, myoblasts were fused into multinucleated myotubes. 1 h before starting the experiment, cells were incubated in Krebs medium to deprived cells of amino acids.\n(§2) Cells were treated with five preparations of Rhaponticum plant extract at 3 concentrations in the presence of normal (0.8 mM) or low (0.08 mM) concentration of amino acids and with DMSO 0.002% for 2 h.\n(§3) At the end of the experiment, cells were lysed in cell lysate buffer (100 μL per well) and centrifuged to isolate the soluble protein in supernatant. Proteins from this cellular assay were quantified using a colorimetric assay derived from LOWRY method. Therefore, 50 μg of total protein in 100 μL lysis buffer were transferred into microwell strips coated with pS6K1 or pAkt antibody and incubated 2 h at 37° C. […] Intensity of the yellow color was readable on a spectrophotometer at 450 nm and directly proportional to pS6K1 or Akt amount detected.\nResults of phosphorylated T389 S6 kinase1 is expressed in absorbance per μg of protein (Abs/μg protein) after 2 hrs incubation and in % of untreated control condition (100%). […]"}, "[2]": {"tested_on": "Akt phosphorylation on threonine 308", "assay": "Akt phosphorylation on threonine 308 in C2C12 myotubes (ELISA)", "assay_type": "cell-based, mice", "conditions": "100 ng/mL, 2 h", "description": "as §1, §2, §3\nResults of phosphorylated Akt is expressed in absorbance per μg of protein (Abs/μg protein) after 2 hrs incubation and in % of untreated control condition (100%). […]"}, "C2C12 myotubes [3]": {"tested_on": "C2C12 myotubes", "assay": "Protein synthesis (tritiated leucine incorporation) in C2C12 myotubes", "assay_type": "cell-based, mice", "conditions": "100 ng/mL", "description": "For the protein synthesis assay, growing cells were harvested and plated at a density of 30 000 cells per well in a 24 well plate. Cells were grown for 48 h in 5% CO2 at 37° C. After cells reached 80% confluence, the medium was replaced with differentiating medium (DMEM+2% FBS). After 5 days, myoblasts were fused into multinucleated myotubes. Protein synthesis was determined by measuring the incorporation of the tritiated amino acid leucine. Briefly, 1 h prior leucine challenge, cells were incubated in amino acid free-medium. Then cells were incubated for 2 h30 in the presence of: radiolabelled leucine 5 μCi/mL and IGF1 100 ng/mL or plant extract in the presence of normal (0.8 mM) or low (0.08 mM) concentration of amino acids and with DMSO 0.002%\nFive different preparations of Rhaponticum extract at three concentrations were incubated for 2 h30 in the presence of differentiated C2C12 myotubes and tritiated leucine (5 μCi). At the end of the incubation cells were lysed, total soluble proteins were quantified and level of tritiated leucine incorporated into cells was counted. Mean±SEM. *p<0.05; **p<0.01; ***p<0.001 vs control value.\nFor this study, C2C12 cells were obtained as described in EXAMPLE 12. Protein synthesis assay was performed as described in EXAMPLE 13, except that radiolabelled leucine 5 μCi/mL and IGF1 100 ng/mL, F0 extract at 1, 5 and 10 μg/ml or Rhodiola extract at 10, 104 and 417 μg/ml in the presence of normal (0.8 mM) concentration of amino acids and with DMSO 0.005% were used.\nFor this study, C2C12 cells were obtained as described in EXAMPLE 12. Protein synthesis assay was performed as described in EXAMPLE 13, except that radiolabelled leucine 5 μCi/mL and IGF1 100 ng/mL, F0 extract at 1 and 10 μg/ml, or Rhodiola extract at 1 and 10 μg/ml or combination of F0 with Rhodiola at different concentrations in the presence of normal (0.8 mM) concentration of amino acids and with DMSO 0.005% was used.\nThe C2C12 skeletal muscle cells were obtained as in EXAMPLE 12. The protein synthesis assay was performed as in EXAMPLE 13 and 14 except that radiolabelled leucine 5 μCi/mL and IGF1 100 ng/mL, F0 extract at 11.4 and 22.9 μg/ml, or F0 dry extract at 6.5 and 13 μg/ml or F1 extract at 13.4 and 26.7 μg/ml or F5′ extract at 1 and 1.9 μg/ml in the presence of normal (0.8 mM) concentration of amino acids and with DMSO 0.005%. At the end of the experiments supernatants were discarded and cells were lysed in 0.1N sodium hydroxide for 30 min. The cell soluble fraction-associated radioactivity was then counted and protein quantification was determined using the coloric Lowry method.\nEach condition is tested in n=6. IGF1 100 ng/ml is used as a positive control of the protein synthesis stimulation and signaling. Results of protein synthesis are expressed in cpm/μL/2.5 hrs and in % of untreated control condition (100%)."}, "[4]": {"tested_on": "myostatin gene expression", "assay": "Myostatin gene expression in C2C12 myotubes (qPCR)", "assay_type": "cell-based, mice", "description": "(§4) For the gene expression assay, growing cells were harvested and plated at a density of 30 000 cells per well in a 24 well plate. Cells were grown for 48 h in 5% CO2 at 37° C. After cells reached 80% confluence, the medium was replaced with differentiating medium (DMEM+2% FBS). After 5 days, myoblasts were fused into multinucleated myotubes.\n(§5) Cells were treated with F0 extract at 1 and 10 μg/ml, or Rhodiola extract at 1 and 10 μg/ml or combination of F0 with Rhodiola at different concentrations, for 6 h. At the end of the experiment, C2C12 cells were lyzed in trizol solution and RNA was extracted and purified using the phenol/chloroform method. RNA amount after extraction was quantified by spectrophotometer (260 nm/280 nm/320 nm) and suspended at a final concentration of 1 μg/1 μL. […]\nFIGS. 23a, 23b, 24a, and 24b: Effect of co-incubation of Rhaponticum F0 and Rhodiola extracts on myostatin gene expression in C2C12 myotubes. […] At the end of the incubation cells were lysed and RNA was extracted, converted into cDNA to perform a quantitative PCR. […]"}, "atrogin gene expression [5]": {"tested_on": "atrogin gene expression", "assay": "Atrogin gene expression in C2C12 myotubes (qPCR)", "assay_type": "cell-based, mice", "conditions": "positive control in this experiment", "description": "as §4, §5\nCombination of Rhaponticum F0 and Rhodiola extracts at two different concentrations each were incubated for 6 h in the presence of differentiated C2C12 myotubes. At the end of the incubation cells were lysed and RNA was extracted, converted into cDNA to perform a quantitative PCR. […]"}, "C2C12 myotubes [6]": {"tested_on": "C2C12 myotubes", "conditions": "low or normal concentration of amino acids; literature (Kazi, Broussard); cited from earlier work"}, "atrogin gene expression [7]": {"tested_on": "atrogin gene expression", "conditions": "24 h incubation, 10 ng/mL; literature (Latres, Stitt); cited from earlier work"}},
  "note": "Marks after values point to notes of the source that are not given here.",
  "data": [
    {"substance": "Insulin like growth factor-1 [IGF-1]", "values": [
      {"measurement": "pS6K", "setting": "[1]", "value": 479, "unit": "%**"},
      {"measurement": "Akt phosphorylation activated by a factor", "setting": "[2]", "value": 1.6},
      {"measurement": "protein synthesis", "setting": "C2C12 myotubes [3]; LOW AMINO ACID (0.08 mM), Step 1, 2 h30, % of untreated control", "value": 145, "unit": "%**"},
      {"measurement": "induction of protein synthesis vs untreated control", "setting": "C2C12 myotubes [3]; step 1, low (0.08 mM) amino acids, DMSO 0.002%", "value": "+45%"},
      {"measurement": "induction of protein synthesis vs untreated control", "setting": "C2C12 myotubes [3]; step 1, normal (0.8 mM) amino acids, DMSO 0.002%", "value": "+21%"},
      {"measurement": "induction of protein synthesis vs untreated control", "setting": "C2C12 myotubes [3]; step 2a, normal (0.8 mM) amino acids, DMSO 0.005%", "value": "+27%"},
      {"measurement": "induction of protein synthesis vs untreated control", "setting": "C2C12 myotubes [3]; step 3, normal (0.8 mM) amino acids, DMSO 0.005%", "value": "+25%"},
      {"measurement": "inhibitory effect on myostatin gene expression", "setting": "[4]; internal data", "value": "20-40%"},
      {"measurement": "change in myostatin gene expression vs control", "setting": "[4]; positive control in this experiment", "value": "−25", "unit": "%"},
      {"measurement": "change in atrogin gene expression vs control", "setting": "atrogin gene expression [5]", "value": "−59", "unit": "%"},
      {"measurement": "increase in protein synthesis", "setting": "C2C12 myotubes [6]", "value": "20-50%"},
      {"measurement": "inhibition of atrogin gene expression", "setting": "atrogin gene expression [7]", "value": "around 40%"}
    ]}
  ]
}
